# Source: US9187784B2, “EphA4 is a disease modifier in motor neuron disease” (VIB VZW, priority 2011, dated 2015)
# Marks after values point to notes of the source that are not given here.
# Tests used:
# TDP43A315T embryos = assay: mutant TDP-43-induced motor axonopathy in zebrafish embryos; type: in vivo; conditions: zebrafish embryos
# Protocol: FIG. 14: Inhibiting EphA4 signaling rescues motor axonopathies induced by overexpression of mutant TDP-43 and knockdown of Smn. Y-axes show motor axon length of zebrafish embryos (30 hpf) expressing TDP^WT (black bar) or TDP^A315T (white bar) (Panels A, B) or with unaltered (black bar) or reduced expression levels of Smn (white bar) (Panels C, D). Smn knockdown was established by injection of 3 ng (Panel C) or 6 ng (Panel D) atg-smn morpholino. Ctr-smn morpholino was injected as control. RTK1 signaling was inhibited by injection of 3 ng atg-RTK1 morpholino (shaded bars) (Panels A, C) or by treatment with C1 (500 μM, shaded bars) (Panels B, D). Injection of ctr-RTK1 morpholino and application of a 1/250 dilution of DMSO were used as control. ANOVA and Bonferroni's multiple comparison tests were used for statistical analysis: TDP^A315T/atg-RTK1 (n=24) vs. TDP^A315T/ctr-RTK1 (n=34, p=7.86×10^−5, Panel A), TDP^A315T/C1 (n=21) vs. TDP^A315T/DMSO (n=21, p=0.045, Panel B), atg-smn/atg-RTK1 (n=35) vs. atg-smn/ctr-RTK1 (n=35, p=4.93×10^−8, Panel C), atg-smn/C1 (n=91) vs. atg-smn/DMSO (n=105, p=1.27×10^−6, Panel D). Error bars are s.e.m.
# Mann-Whitney test was used to determine significance between TDPA315T/ctr-RTK1 (4.5 ng) vs. TDPA315T/atg-RTK1 (4.5 ng, * p=0.001) and between TDPA315T/control vs. TDPA315T/C1 (° p=0.029). Control=1/250 DMSO and C1=500 μM.
# (§1) A morpholino database of translation-blocking morpholinos (atg-mo) was used to perform a morpholino-based knockdown screening in a zebrafish model for ALS.^13 The standard control morpholino (5′-[…]-′3) (SEQ ID NO:4), provided by Gene tools, was used as control. Three nanograms of morpholino were co-injected with […] of SOD1 mRNA and the effect of gene knockdown on the mutant SOD1-induced axonopathy analyzed. Each morpholino was tested in two separate experiments. Only morphologically normal embryos were included for further analysis. Overexpression of SOD1 or TDP-43, applied to validate the protective morpholino, was established by injection of 1.76 ng SOD1 mRNA or 1.43 ng TDP-43 mRNA, respectively. Antisense morpholinos to knockdown zebrafish RTK1, RTK2, Smn and their five base pair-mismatch control morpholinos were developed by Gene tools: atg-RTK1 (5′-[…]-′3) (SEQ ID NO:5), atg-RTK2 (5′-[…]-[…]-′3) (SEQ ID NO:6), splice-RTK2 (5′-[…]-[…]-′3) (SEQ ID NO:7) and atg-smn (5′-[…]-3′) (SEQ ID NO:8). Compound 1 (2,5-dimethylpyrrolyl benzoic acid, Matrix Scientific) dissolved in DMSO was added to the water of 6-hpf-old zebrafish embryos.
# [1] = system: mutant SOD1-overexpressing fish; assay: mutant SOD1-induced motor axonopathy in zebrafish embryos (percentage affected embryos, motor axon length); type: in vivo; conditions: for % affected embryos: Table 3, SOD1A4V embryos
# Description: FIG. 1: EphA4 knockdown rescues mutant SOD1-induced motor axonopathy. […] Abnormal branching is indicated with arrowhead. Y-axes show motor axon length of zebrafish embryos expressing wild-type SOD1 (black bar, Panels D-G) or mutant SOD1 (white bar, Panels D-G). Knockdown of RTK2 in SOD1A4V- (Panel D), SOD1G93A- (Panel E) and SOD1G37R- (Panel F) expressing fish was established by co-injection of increasing amounts of atg-RTK2 morpholino (shaded bars). RTK1 expression was inhibited in SOD1A4V-expressing fish by co-injection of atg-RTK1 morpholino (shaded bars, Panel G). Ctr-RTK2 and ctr-RTK1 were used as control. ANOVA and Bonferroni's multiple comparison tests were used for statistical analysis. Comparing axonal length in SOD1A4V fish injected with ctr-RTK2 (n=39) vs. different doses atg-RTK2: 3 ng (n=43, p=0.0059), 4.5 ng (n=37, p=0.0016, Panel D), SOD1G93A: ctr-RTK2 (n=60) vs. atg-RTK2: 1.5 ng (n=55, p=0.015), 3 ng (n=51, p=2.82×10-9), 4.5 ng (n=46, p=2.22×10-15, Panel E), SOD1G37R: ctr-RTK2 (n=37) vs. atg-RTK2: 3 ng (n=25, p=0.027), 4.5 ng (n=36, p=0.0018, Panel F) and SOD1A4V: ctr-RTK1 (n=49) vs. atg-RTK1: 1.5 ng (n=51, p=2.51×10-7), 3 ng (n=64, p=7.99×10-10), 4.5 ng (n=54, p<1×10-20, Panel G). Western blot of SOD1WT or SOD1A4V (1.76 ng) expressing zebrafish embryos (30 hpf), co-injected with either ctr-RTK1 or atg-RTK1 (4.5 ng). Sixty embryos were used per group with actin as the loading control (H). Immunostaining of rtk1 (green) in rhombomeres 3 and 5 and of ephrin-b2 (magenta) in rhombomere 4 in zebrafish embryos injected with either ctr-RTK1 or atg-RTK1 (4.5 ng). RTK1-depleted embryos show disorganized rhombomere boundaries (arrowhead, I, Scale bar 50 μm). Error bars are s.e.m.
# FIG. 2: RTK2 knockdown protects motor axons against SOD1^A4V-induced injury. Effect of RTK2 knockdown, established by injection of splice-rtk2 morpholino, on the motor axon length of SOD1^A4V-expressing zebrafish embryos (30 hpf). SOD1^WT-expressing fish and a non-functional five-base pair-mismatch control morpholino (ctr-RTK2) were used as control (Panel A). ANOVA and Bonferroni's multiple comparison tests were used for statistical analysis: SOD1^A4V/ctr-RTK2 (n=56) vs. SOD1^A4V/spl-RTK2 (n=60, 1.79×10^−4). Spl-RTK2 was designed against the exon 2 splice site of the zebrafish RTK2 pre-mRNA and alternatively skipped out exon 2. RT-PCR on non-transgenic fish (lane 1), ctr-RTK2-injected fish (lane 2) and spl-RTK2-injected fish (lane 3) at 30 hpf. Functional RTK2 mRNA, containing exon 2, is indicated by the 818-bp product (upper band) while non-functional RTK2 mRNA, lacking exon 2 is indicated by the 156-bp product (lower band), 60 embryos each group (Panel B). Error bars are s.e.m.
# (§2) FIG. 12: Pharmacological inhibition of EphA4 receptor signaling protects against mutant SOD1 pathology in vivo. Effect of treatment with Compound 1 (C1, 500 μM) on the motor axon length of zebrafish embryos (30 hpf). DMSO (1/250 dilution) was used as control (Panel A). ANOVA and Bonferroni's multiple comparison tests were used for statistical analysis: SOD1^A4V/C1 (n=68) vs. SOD1^A4V/DMSO (n=76, p=3.54×10^−5). Effect of KYL-peptide (3 mM) treatment of 60-day-old SOD1^G93A rats on disease onset (Panel B) and survival (Panel C). Artificial CSF (ACSF) was used as control. Average disease onset: 133 days (treated, n=21) versus 125 days (control, n=17, T-test p=0.044). Average survival: 148 days (treated, n=21) versus 139 days (controls, n=17, T-test p=0.041). Error bars are s.e.m.
# Effect of RTK2 knockdown (established by injection of atg-RTK2 morpholino) on the percentage of affected wild-type SOD1 or mutant SOD1 (A4V, G93A, G37R) zebrafish embryos (30 hpf). Ctr-RTK2 morpholino was used as control. An embryo was considered as affected when it had more than 10% abnormally branched motor axons. Significance of mtSOD1/ctr-RTK2 (4.5 ng) vs. mtSOD1/atg-RTK2 (4.5 ng) was determined by Mann-Whitney test, * p=0.0075, ° p=0.039 and # p=0.0052. […]
# zebrafish embryos = assay: morpholino-based smn knockdown: abnormally branched and truncated motor axons in zebrafish embryos; type: in vivo; conditions: for truncation affected (%): affected = more than 5% truncated motor axons; for branching affected (%): affected = more than 10% abnormally branched motor axons
# Protocol: FIG. 15: Smn knockdown reduces the motor axon length in zebrafish embryos. […] The non-functional five-base pair-mismatch control morpholino (ctr-smn) was used as control. ANOVA and Bonferroni's multiple comparison tests were used for statistical analysis: ctr-smn (6 ng, n=42) vs. 3 ng atg-smn (n=28, p=8.99×10^−3), 4.5 ng atg-smn (n=30, 3.37×10^−7), 6 ng atg-smn (n=41, p<1×10-20). Error bars are s.e.m.
# Effect of smn knockdown, induced by injection of increasing amounts of atg-smn morpholino, on the percentage affected embryos. An embryo was considered as affected when it had more than 10% abnormally branched or more than 5% truncated motor axons. Significance of ctr-smn (6 ng) vs. atg-smn (6 ng) was determined by Mann-Whitney test, *p=3×10-4, ° p=1.3×10-4.
# as §1
# SOD1G93A rat = assay: KYL peptide intracerebroventricular treatment of SOD1G93A rats (disease onset, survival); type: in vivo
# Protocol: as §2
# EphA4−/− mice were mated with SOD1G93A mice for at least six generations. All experiments were littermate and gender controlled. […] The EphA4 blocking peptide ([…] (SEQ ID NO:1)-95% purity; Eurogentec) was a 3 mM solution in artificial cerebrospinal fluid and infused into the left lateral ventricle of 60-day-old female rats, using mini-osmotic pumps (28 days, 0.25 μl/h, Model 2004, Alzet) as previously described.^46 Disease onset, progression and survival of SOD1G93A rats were analyzed by weight and rotarod performance (five times for three minutes at 15 rpm) three times a week. […]
# EphA4 = EphA4 (Homo sapiens, UniProt P54764); conditions: WO2004/028551; cited from earlier work
# Sequence of EphA4 (P54764 20-986, species assumed): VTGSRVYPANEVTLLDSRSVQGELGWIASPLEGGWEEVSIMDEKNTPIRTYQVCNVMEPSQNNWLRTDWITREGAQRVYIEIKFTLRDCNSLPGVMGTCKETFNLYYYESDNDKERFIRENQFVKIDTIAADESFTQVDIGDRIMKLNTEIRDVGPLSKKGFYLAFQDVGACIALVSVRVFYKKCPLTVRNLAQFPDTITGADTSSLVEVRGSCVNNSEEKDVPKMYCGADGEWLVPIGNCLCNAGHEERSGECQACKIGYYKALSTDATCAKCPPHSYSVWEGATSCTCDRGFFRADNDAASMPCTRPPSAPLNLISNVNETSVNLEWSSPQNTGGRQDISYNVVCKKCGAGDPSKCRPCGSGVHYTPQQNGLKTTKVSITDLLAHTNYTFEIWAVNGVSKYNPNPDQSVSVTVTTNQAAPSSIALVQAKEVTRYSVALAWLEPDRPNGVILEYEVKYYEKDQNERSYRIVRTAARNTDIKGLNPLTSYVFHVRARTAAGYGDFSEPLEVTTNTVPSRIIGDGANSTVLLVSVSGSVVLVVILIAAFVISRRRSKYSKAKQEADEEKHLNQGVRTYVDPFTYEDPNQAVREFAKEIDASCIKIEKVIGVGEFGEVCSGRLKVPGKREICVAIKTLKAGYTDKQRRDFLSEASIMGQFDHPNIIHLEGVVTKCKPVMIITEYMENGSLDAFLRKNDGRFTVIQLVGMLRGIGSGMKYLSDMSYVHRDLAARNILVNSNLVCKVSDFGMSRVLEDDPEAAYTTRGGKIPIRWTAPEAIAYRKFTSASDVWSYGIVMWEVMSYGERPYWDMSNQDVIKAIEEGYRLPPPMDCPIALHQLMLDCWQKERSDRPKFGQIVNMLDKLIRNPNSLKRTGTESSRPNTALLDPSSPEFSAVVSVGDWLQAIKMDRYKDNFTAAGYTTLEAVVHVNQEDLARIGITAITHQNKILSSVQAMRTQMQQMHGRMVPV
substance,measurement,setting,value
"2,5-dimethylpyrrolyl benzoic acid [Compound C1]",effect on outgrowth deficit and aberrant branching induced by mutant TDP-43,TDP43A315T embryos,rescued the outgrowth deficit and aberrant branching induced by mutant TDP-43
5′-CCTCCCACTGA-AAATGGACAGAGGA-′3 (antisense CCTCCCACTGAAAATGGACAGAGGA; all phosphorodiamidate morpholino (PMO)) [spl-RTK2],effect on mutant SOD1-induced axonopathy,"[1]; SOD1A4V zebrafish embryos, 30 hpf",replicating the protective effect of RTK2 knockdown
same,% affected embryos,[1]; morpholino 0.4 ng,40 (30) %
same,% affected embryos,[1]; morpholino 0.8 ng,19 (31) %
same,% affected embryos,[1]; morpholino 1.5 ng,13* (31) %
5′-CGACATCTTCTGCACCATTGGC-3′ (all phosphorodiamidate morpholino (PMO)) [atg-smn],truncation affected (%),zebrafish embryos; morpholino 3 ng,7%
same,branching affected (%),zebrafish embryos; morpholino 3 ng,39%
same,truncation affected (%),zebrafish embryos; morpholino 4.5 ng,11%
same,branching affected (%),zebrafish embryos; morpholino 4.5 ng,46%
same,truncation affected (%),zebrafish embryos; morpholino 6 ng,42° %
same,branching affected (%),zebrafish embryos; morpholino 6 ng,71* %
KYLPYWPVLSSL (EphA4 inhibitory peptide) [KYL peptide],Average survival,"SOD1G93A rat; KYL-peptide 3 mM intracerebroventricular from day 60, controls 139 days",148 days
same,Average disease onset,"SOD1G93A rat; KYL-peptide 3 mM intracerebroventricular from day 60, onset by rotarod, control 125 days",133 days
same,binding to EphA4,EphA4,preferentially bind to EphA4
VTMEAINLAFPG (EphA4 inhibitory peptide) [VTM peptide],binding to EphA4,EphA4,preferentially bind to EphA4
